For data set [1], the system named is A549. Nature of the data set: Anti-proliferative activity, cell-titre luminescent viability assay. The conditions noted are these: Homo sapiens, A549, 72 h, 0.03, 0.3, 3 and 30 μM, linear regression of semi-log plots, read-out: IC50 Lung (NSLC) A549. Type of data set: cell-based. An outline of the steps: (§1)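 Cells attached for 24 h at 37° C, 5% CO2, then received compound (0.03, 0.3, 3, 30 μM, or 0.1–30 μM in six steps) for 72 h. Viability was read by cell-titre luminescence after 30 min and normalized to untreated or vehicle control. IC50 came from linear regression of semi-log plots, or EC50 from variable-slope sigmoidal nonlinear regression, depending on compound.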

For data set [2], the system named is DU145. Described as above. The settings on record: Homo sapiens, DU-145, 72 h, 0.03, 0.3, 3 and 30 μM, linear regression of semi-log plots, read-out: IC50 Prostate DU145. Type of data set: cell-based. An outline of the steps: as §1
Data set [3] deals with PC3. The description is as above. Type of data set: cell-based. The settings on record: Homo sapiens, PC-3, 72 h, 0.03, 0.3, 3 and 30 μM, linear regression of semi-log plots, read-out: IC50 Prostate PC3. An outline of the steps: as §1
The subject of data set [4] is A2058. Kind of data set: Anti-proliferative activity, MTS viability assay. The conditions noted are these: Homo sapiens, 72 hours exposure, read-out: IC50 Melanoma A2058. Type of data set: cell-based. On the procedure:
(§2) The anti-proliferative activity of compound 3507 was further evaluated in cell lines representative of melanoma, prostate cancer, leukaemia and neuroblastoma. Cell viability after 72 hours exposure to increasing concentrations of compound 3507 was measured using an MTS viability assay. Cell viability was normalized to control (vehicle alone) and dose-response curves, and relative inhibitory concentration (IC50) values were determined using GraphPad Prism 6.

Data set [5] concerns BL. Kind of data set: Anti-proliferative activity, MTS viability assay. Type of data set: cell-based. The settings on record: 72 hours exposure, read-out: IC50 Melanoma BL. The procedure: as §2
In data set [6] the test system is BPH-1. Nature of the data set: Anti-proliferative activity, MTS viability assay. The settings on record: Homo sapiens, 72 hours exposure, read-out: IC50 Prostate BPH-1. Type of data set: cell-based. The procedure:
as §2

In data set [7] the test system is CHLA-20. Nature of the data set: Anti-proliferative activity, MTS viability assay. The settings on record: 72 hours exposure, read-out: IC50 Neuroblastoma CHLA-20. Type of data set: cell-based. The procedure: as §2
Data set [8] concerns CHLA-90. Nature of the data set: Anti-proliferative activity, MTS viability assay. Type of data set: cell-based. The conditions noted are these: 72 hours exposure, read-out: IC50 Neuroblastoma CHLA-90. The procedure:
as §2

In data set [9] the test system is CHP-134. Nature of the data set: Anti-proliferative activity, MTS viability assay. The format is cell-based. The conditions noted are these: Homo sapiens, 72 hours exposure, read-out: IC50 Neuroblastoma CHP-134. The procedure: as §2
Data set [10] has as its system D20. Kind of data set: Anti-proliferative activity, MTS viability assay. Type of data set: cell-based. The conditions noted are these: 72 hours exposure, read-out: IC50 Melanoma D20. On the procedure: as §2
Data set [11] deals with HL-60. Kind of data set: Anti-proliferative activity, MTS viability assay. The format is cell-based. The settings on record: Homo sapiens, 72 hours exposure, read-out: IC50 Leukemia HL-60. On the procedure:
as §2

Data set [12] concerns K562. Nature of the data set: Anti-proliferative activity, MTS viability assay. The settings on record: Homo sapiens, 72 hours exposure, read-out: IC50 Leukemia K562. Type of data set: cell-based. The procedure: as §2
The subject of data set [13] is LNCaP. Nature of the data set: Anti-proliferative activity, MTS viability assay. The conditions noted are these: Homo sapiens, 72 hours exposure, read-out: IC50 Prostate LNCaP. Type of data set: cell-based. The procedure: as §2
In data set [14] the test system is MM329. Nature of the data set: Anti-proliferative activity, MTS viability assay. The conditions noted are these: 72 hours exposure, read-out: IC50 Melanoma MM329. The format is cell-based. On the procedure:
as §2

For data set [15], the system named is MM415. Kind of data set: Anti-proliferative activity, MTS viability assay. The format is cell-based. The conditions noted are these: 72 hours exposure, read-out: IC50 Melanoma MM415. The procedure: as §2
For data set [16], the system named is MM96L. Nature of the data set: Anti-proliferative activity, MTS viability assay. Type of data set: cell-based. The settings on record: Homo sapiens, 72 hours exposure, read-out: IC50 Melanoma MM96L. The procedure: as §2
The test system of data set [17] is P4E6. Nature of the data set: Anti-proliferative activity, MTS viability assay. The conditions noted are these: 72 hours exposure, read-out: IC50 Prostate P4E6. Type of data set: cell-based. The procedure:
as §2

Data set [18] relates to SK-N-Be(2). Kind of data set: Anti-proliferative activity, MTS viability assay. Type of data set: cell-based. The settings on record: Homo sapiens, SKNBE2, 72 hours exposure, read-out: IC50 Neuroblastoma SK-N-Be(2). On the procedure:
as §2

The subject of data set [19] is SKMEL13. Kind of data set: Anti-proliferative activity, MTS viability assay. The format is cell-based. The conditions noted are these: 72 hours exposure, read-out: IC50 Melanoma SKMEL13. The procedure:
as §2

In data set [20] the test system is THP-1. Nature of the data set: Anti-proliferative activity, MTS viability assay. Type of data set: cell-based. The settings on record: Homo sapiens, 72 hours exposure, read-out: IC50 Leukemia THP-1. On the procedure: as §2
Data set [21] concerns A375 tumours. Nature of the data set: Human melanoma (A375) xenograft model. The conditions noted are these: 60 mg/kg intravenously twice a week. The format is in vivo. The procedure: FIG. 5: Compound 3507/30% w/v Dexolve-7 was administered IV 2×/week at 60 mg/kg for 14 days in a flank xenograft model of melanoma (A375). Tumour volume was measured every 2-3 days. ** p<0.01.
The in vivo efficacy of 3507 was also evaluated in a human melanoma (A375) xenograft model. A375 tumours were established in female Foxn-1 nu/nu athymic mice by injecting approximately five million cells subcutaneously in the right flank region of the animal. When the tumours reached 130-150 mm^3 the animals were randomized into four groups, (n=8 or 12 animals/group) so that the average tumour volume of all the groups was same. Group 1 received vehicle (30% w/v Dexolve-7 in sterile water) twice a week intravenously, and Group 2 was dosed with 3507/Dexolve-7 at 60 mg/kg, twice a week intravenously. Tumours and body weight was measured two to three times in a week. In addition, throughout the study period mice were monitored daily for clinical condition.

The structures appear in SMILES notation.

For `Cc1c(C)n(CCCN2CCN(C)CC2)c2ccc(Oc3cccc(C(=O)N4CCN(CCc5ccc(F)cc5)CC4)c3)cc12` [Compound 3507, (3-((2,3-dimethyl-1-(3-(4-methylpiperazin-1-yl)propyl)-1H-indol-5-yl)oxy)phenyl)(4-(4-fluorophenethyl)piperazin-1-yl)methanone], the IC50 in data set [1] was determined as 1.2 µM; in data set [2], 1.3 µM; in [3] it was 1.2 µM; in data set [4] it was 4.06 µM; in data set [5] it was 5.83 µM; in data set [6] it was 0.72 µM. For the same molecule, the IC50 in data set [7] was 6.9 µM; in data set [8] it was 4.24 µM; in data set [9], 7.2 µM; in [10] it was 5.01 µM; in data set [11], 1.16 µM; in [12], 0.95 µM. Moreover, the IC50 turned out to be 0.59 µM in data set [13]; 3.8 µM in data set [14]; 4.67 µM in data set [15]; 3.27 µM in data set [16]; 0.87 µM in data set [17]; 5.47 µM in data set [18]. Further, the IC50 is 3.72 µM in [19] and 0.8 µM in data set [20]. In [21], the tolerability entry is “well tolerated”. The “reduction of melanoma tumour growth compared to vehicle control” value in data set [21] (after 14 days treatment) is given as approximately 60%. For the same molecule, in data set [21] (throughout the study period), the body weights entry is listed as “comparable to the control group”.

For the origin of these results see patent US20170152226A1, “FUNCTIONALISED AND SUBSTITUTED INDOLES AS ANTI-CANCER AGENTS” (Novogen Ltd., priority 2014, published 2017).
